Measurements published in patent US20020137929A1, “1 - (3-heterocyclylphenyl) isothiourea, -isourea, -guanidine and -amidine herbicidal agents” (Intellectual Property Department, BASF Aktiengesellschaft, priority 1998, published 2002).

Tests used:
ABUTH (Velvetleaf) [1] = experiment: Postemergence herbicidal evaluation; format: in vivo, Abutilon theophrasti; conditions: postemergence
Summary of the method: (§1)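 Scores (0–9) reflect plant stand, vigor, malformation, size, chlorosis and general appearance relative to control, read 4 to 5 weeks after treatment and averaged where tests were repeated. Application: about 0.0156–0.500 kg/ha sprayed at 40 psi onto two-week seedlings.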

AMBEL (Ragweed, Common) = experiment: Postemergence herbicidal evaluation; format: in vivo, Ambrosia artemisifolia; conditions: postemergence
Summary of the method: as §1

ECHCG (Barnyardgrass) = experiment: Postemergence herbicidal evaluation; format: in vivo, Echinochloa crus-galli; conditions: postemergence
Summary of the method: as §1

SETVI (Foxtail, Green) [2] = experiment: Postemergence herbicidal evaluation; format: in vivo, Setaria viridis; conditions: postemergence
Summary of the method: as §1

[3] = system: GLXMAW (Soybean, Williams); experiment: Postemergence herbicidal evaluation; format: in vivo, Glycine max, (L.) Merr. cv Williams; conditions: postemergence
Summary of the method: as §1

ORYSAT (Rice, Tebonnet) = experiment: Postemergence herbicidal evaluation; format: in vivo, Oryza sativa, (L.) Tebonnet; conditions: postemergence
Summary of the method: as §1

[4] = system: TRZAWR (Wheat, Winter, cv Riband); experiment: Postemergence herbicidal evaluation; format: in vivo, Triticum aestivum; conditions: postemergence
Summary of the method: as §1

ABUTH (Velvetleaf) [5] = experiment: Preemergence herbicidal evaluation; format: in vivo, Abutilon theophrasti; conditions: rated 4-5 weeks after treatment
Summary of the method: (§2)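 Each species is sown separately in potting soil over roughly an inch of soil before any emergence. The soil surface then receives an aqueous acetone spray delivering about 0.0156 to 0.500 kg/ha of compound. After four to five weeks, injury is scored from 0 to 9 relative to a control.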

CASOB (Sicklepod) = experiment: Preemergence herbicidal evaluation; format: in vivo, Cassia obtusifolia; conditions: rated 4-5 weeks after treatment
Summary of the method: as §2

SETVI (Foxtail, Green) [6] = experiment: Preemergence herbicidal evaluation; format: in vivo, Setaria viridis; conditions: rated 4-5 weeks after treatment
Summary of the method: as §2

[7] = system: SAGPY (Arrowhead (Pygmaea)); experiment: Preemergence weed control under flooded paddy conditions; format: in vivo, Sagittaria pygmaea; conditions: rated 3-4 weeks after treatment
Summary of the method: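 Greenhouse paddy assay. Acetone/water (50/50 v/v) solutions dosed into flood water, equivalent to about 0.0313 to 0.500 kg/ha active ingredient, over seeds planted 0.5 cm deep in silt loam. Score: 0-9 visual, based on stand, vigor, malformation, size and chlorosis, 3 to 4 weeks after treatment.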

CYPIR (Rice Flatsedge) = experiment: Postemergence weed control under flooded paddy conditions; format: in vivo, Cyperus iria; conditions: postemergence weeds, rated 3 to 4 weeks after treatment
Summary of the method: (§3)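 Flood-water application, about 0.0313–0.500 kg/ha a.i. in aqueous/acetone 50/50 v/v; water depth 1.5–3 cm throughout. Weeds 3–5 cm, rice 1.5–2.5 leaf. Greenhouse; 0–9 visual rating vs control at 3–4 wk.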

[8] = system: SAGPY (Arrowhead (Pygmaea)); experiment: as above; format: in vivo, Sagittaria pygmaea; conditions: postemergence weeds, rated 3 to 4 weeks after treatment
Summary of the method: as §3

CCOC(=O)[C@H](Cc1ccccc1)N1C(=O)CSC1=Nc1cc(-n2c(=O)cc(C(F)(F)F)n(C)c2=O)c(F)cc1Cl [Compound 80, Ethyl α-benzyl-2-{{2-chloro-5-[3,6-dihydro-3-methyl-2,6-dioxo-4-(trifluoromethyl)-1(2H)-pyrimidinyl]-4-fluorophenyl}imino}-4-oxo-3-thiazolidineacetate, L-]
ABUTH herbicidal rating (ABUTH (Velvetleaf) [1]; rate 0.0158 kg/ha): 9.0 | ABUTH herbicidal rating (ABUTH (Velvetleaf) [1]; rate 0.0315 kg/ha): 9.0 | ABUTH herbicidal rating (ABUTH (Velvetleaf) [1]; rate 0.0630 kg/ha): 9.0 | AMBEL herbicidal rating (AMBEL (Ragweed, Common); rate 0.0158 kg/ha): 9.0 | AMBEL herbicidal rating (AMBEL (Ragweed, Common); rate 0.0315 kg/ha): 9.0 | AMBEL herbicidal rating (AMBEL (Ragweed, Common); rate 0.0630 kg/ha): 7.0 | ECHCG herbicidal rating (ECHCG (Barnyardgrass); rate 0.0158 kg/ha): 1.0 | ECHCG herbicidal rating (ECHCG (Barnyardgrass); rate 0.0315 kg/ha): 2.0 | ECHCG herbicidal rating (ECHCG (Barnyardgrass); rate 0.0630 kg/ha): 3.0 | SETVI herbicidal rating (SETVI (Foxtail, Green) [2]; rate 0.0158 kg/ha): 1.0 | SETVI herbicidal rating (SETVI (Foxtail, Green) [2]; rate 0.0315 kg/ha): 2.0 | SETVI herbicidal rating (SETVI (Foxtail, Green) [2]; rate 0.0630 kg/ha): 4.0 | GLXMAW herbicidal rating ([3]; rate 0.0158 kg/ha): 4.5 | GLXMAW herbicidal rating ([3]; rate 0.0315 kg/ha): 5.5 | GLXMAW herbicidal rating ([3]; rate 0.0630 kg/ha): 6.5 | ORYSAT herbicidal rating (ORYSAT (Rice, Tebonnet); rate 0.0158 kg/ha): 3.5 | ORYSAT herbicidal rating (ORYSAT (Rice, Tebonnet); rate 0.0315 kg/ha): 3.5 | ORYSAT herbicidal rating (ORYSAT (Rice, Tebonnet); rate 0.0630 kg/ha): 4.0 | TRZAWR herbicidal rating ([4]; rate 0.0158 kg/ha): 3.5 | TRZAWR herbicidal rating ([4]; rate 0.0315 kg/ha): 3.5 | TRZAWR herbicidal rating ([4]; rate 0.0630 kg/ha): 4.0 | Preemergence herbicidal rating ABUTH (ABUTH (Velvetleaf) [5]; rate 0.0156 kg/ha): 0.0 | Preemergence herbicidal rating ABUTH (ABUTH (Velvetleaf) [5]; rate 0.0313 kg/ha): 1.0 | Preemergence herbicidal rating ABUTH (ABUTH (Velvetleaf) [5]; rate 0.0625 kg/ha): 9.0 | Preemergence herbicidal rating ABUTH (ABUTH (Velvetleaf) [5]; rate 0.1250 kg/ha): 9.0 | Preemergence herbicidal rating ABUTH (ABUTH (Velvetleaf) [5]; rate 0.2500 kg/ha): 9.0 | Preemergence herbicidal rating CASOB (CASOB (Sicklepod); rate 0.0156 kg/ha): 1.0 | Preemergence herbicidal rating CASOB (CASOB (Sicklepod); rate 0.0313 kg/ha): 0.0 | Preemergence herbicidal rating CASOB (CASOB (Sicklepod); rate 0.0625 kg/ha): 0.0 | Preemergence herbicidal rating CASOB (CASOB (Sicklepod); rate 0.1250 kg/ha): 9.0 | Preemergence herbicidal rating CASOB (CASOB (Sicklepod); rate 0.2500 kg/ha): 9.0 | Preemergence herbicidal rating SETVI (SETVI (Foxtail, Green) [6]; rate 0.0156 kg/ha): 0.0 | Preemergence herbicidal rating SETVI (SETVI (Foxtail, Green) [6]; rate 0.0313 kg/ha): 0.0 | Preemergence herbicidal rating SETVI (SETVI (Foxtail, Green) [6]; rate 0.0625 kg/ha): 1.0 | Preemergence herbicidal rating SETVI (SETVI (Foxtail, Green) [6]; rate 0.1250 kg/ha): 7.0 | Preemergence herbicidal rating SETVI (SETVI (Foxtail, Green) [6]; rate 0.2500 kg/ha): 7.0 | SAGPY herbicidal effect rating ([7]; 0.0313 kg/ha): 0.0 | SAGPY herbicidal effect rating ([7]; 0.0625 kg/ha): 0.0 | SAGPY herbicidal effect rating ([7]; 0.1250 kg/ha): 0.0 | SAGPY herbicidal effect rating ([7]; 0.2500 kg/ha): 0.0 | Herbicidal rating CYPIR (CYPIR (Rice Flatsedge); Rate 0.0313 kg/ha): 5.0 | Herbicidal rating CYPIR (CYPIR (Rice Flatsedge); Rate 0.0625 kg/ha): 7.0 | Herbicidal rating CYPIR (CYPIR (Rice Flatsedge); Rate 0.1250 kg/ha): 7.0 | Herbicidal rating CYPIR (CYPIR (Rice Flatsedge); Rate 0.2500 kg/ha): 7.0 | Herbicidal rating SAGPY ([8]; Rate 0.0313 kg/ha): 0.0 | Herbicidal rating SAGPY ([8]; Rate 0.0625 kg/ha): 0.0 | Herbicidal rating SAGPY ([8]; Rate 0.1250 kg/ha): 0.0 | Herbicidal rating SAGPY ([8]; Rate 0.2500 kg/ha): 0.0

C[C@H](C(=O)O)N1C(=O)CSC1=Nc1cc(-n2c(=O)cc(C(F)(F)F)n(C)c2=O)c(F)cc1Cl [Compound 70, 2-{{2-Chloro-5-[3,6-dihydro-3-methyl-2,6-dioxo-4-(trifluoromethyl)-1(2H)-pyrimidinyl]-4-fluoro-phenyl}imino}-α-methyl-4-oxo-3-thiazolidineacetic acid, D-]
ABUTH herbicidal rating (ABUTH (Velvetleaf) [1]; rate 0.0158 kg/ha): 1.0 | ABUTH herbicidal rating (ABUTH (Velvetleaf) [1]; rate 0.0315 kg/ha): 6.0 | ABUTH herbicidal rating (ABUTH (Velvetleaf) [1]; rate 0.0630 kg/ha): 9.0 | AMBEL herbicidal rating (AMBEL (Ragweed, Common); rate 0.0158 kg/ha): 6.0 | AMBEL herbicidal rating (AMBEL (Ragweed, Common); rate 0.0315 kg/ha): 6.0 | AMBEL herbicidal rating (AMBEL (Ragweed, Common); rate 0.0630 kg/ha): 7.0 | ECHCG herbicidal rating (ECHCG (Barnyardgrass); rate 0.0158 kg/ha): 0.0 | ECHCG herbicidal rating (ECHCG (Barnyardgrass); rate 0.0315 kg/ha): 2.0 | ECHCG herbicidal rating (ECHCG (Barnyardgrass); rate 0.0630 kg/ha): 9.0 | SETVI herbicidal rating (SETVI (Foxtail, Green) [2]; rate 0.0158 kg/ha): 1.0 | SETVI herbicidal rating (SETVI (Foxtail, Green) [2]; rate 0.0315 kg/ha): 2.0 | SETVI herbicidal rating (SETVI (Foxtail, Green) [2]; rate 0.0630 kg/ha): 9.0 | GLXMAW herbicidal rating ([3]; rate 0.0158 kg/ha): 4.5 | GLXMAW herbicidal rating ([3]; rate 0.0315 kg/ha): 5.5 | GLXMAW herbicidal rating ([3]; rate 0.0630 kg/ha): 7.0 | ORYSAT herbicidal rating (ORYSAT (Rice, Tebonnet); rate 0.0158 kg/ha): 2.5 | ORYSAT herbicidal rating (ORYSAT (Rice, Tebonnet); rate 0.0315 kg/ha): 3.5 | ORYSAT herbicidal rating (ORYSAT (Rice, Tebonnet); rate 0.0630 kg/ha): 5.0 | TRZAWR herbicidal rating ([4]; rate 0.0158 kg/ha): 2.5 | TRZAWR herbicidal rating ([4]; rate 0.0315 kg/ha): 4.0 | TRZAWR herbicidal rating ([4]; rate 0.0630 kg/ha): 5.5 | Preemergence herbicidal rating ABUTH (ABUTH (Velvetleaf) [5]; rate 0.0156 kg/ha): 0.0 | Preemergence herbicidal rating ABUTH (ABUTH (Velvetleaf) [5]; rate 0.0313 kg/ha): 0.0 | Preemergence herbicidal rating ABUTH (ABUTH (Velvetleaf) [5]; rate 0.1250 kg/ha): 6.0 | Preemergence herbicidal rating ABUTH (ABUTH (Velvetleaf) [5]; rate 0.2500 kg/ha): 9.0 | Preemergence herbicidal rating CASOB (CASOB (Sicklepod); rate 0.0156 kg/ha): 0.0 | Preemergence herbicidal rating CASOB (CASOB (Sicklepod); rate 0.0313 kg/ha): 0.0 | Preemergence herbicidal rating CASOB (CASOB (Sicklepod); rate 0.0625 kg/ha): 0.0 | Preemergence herbicidal rating CASOB (CASOB (Sicklepod); rate 0.1250 kg/ha): 1.0 | Preemergence herbicidal rating CASOB (CASOB (Sicklepod); rate 0.2500 kg/ha): 0.0 | Preemergence herbicidal rating SETVI (SETVI (Foxtail, Green) [6]; rate 0.0156 kg/ha): 0.0 | Preemergence herbicidal rating SETVI (SETVI (Foxtail, Green) [6]; rate 0.0313 kg/ha): 0.0 | Preemergence herbicidal rating SETVI (SETVI (Foxtail, Green) [6]; rate 0.0625 kg/ha): 2.0 | Preemergence herbicidal rating SETVI (SETVI (Foxtail, Green) [6]; rate 0.1250 kg/ha): 9.0 | Preemergence herbicidal rating SETVI (SETVI (Foxtail, Green) [6]; rate 0.2500 kg/ha): 9.0 | SAGPY herbicidal effect rating ([7]; 0.0313 kg/ha): 4.0 | SAGPY herbicidal effect rating ([7]; 0.0625 kg/ha): 4.0 | SAGPY herbicidal effect rating ([7]; 0.1250 kg/ha): 4.0 | SAGPY herbicidal effect rating ([7]; 0.2500 kg/ha): 4.0 | Herbicidal rating CYPIR (CYPIR (Rice Flatsedge); Rate 0.0313 kg/ha): 0.0 | Herbicidal rating CYPIR (CYPIR (Rice Flatsedge); Rate 0.0625 kg/ha): 2.0 | Herbicidal rating CYPIR (CYPIR (Rice Flatsedge); Rate 0.1250 kg/ha): 2.0 | Herbicidal rating CYPIR (CYPIR (Rice Flatsedge); Rate 0.2500 kg/ha): 2.0 | Herbicidal rating SAGPY ([8]; Rate 0.0313 kg/ha): 4.0 | Herbicidal rating SAGPY ([8]; Rate 0.0625 kg/ha): 4.0 | Herbicidal rating SAGPY ([8]; Rate 0.1250 kg/ha): 4.0 | Herbicidal rating SAGPY ([8]; Rate 0.2500 kg/ha): 4.0
